Tests used:
[1] = target: Receptor-interacting serine/threonine-protein kinase 3 (Homo sapiens) (UniProt Q9Y572); experiment: Selectivity interaction (LanthaScreen Eu Kinase Binding Assay) EUB0001632a RIPK3; details: at 10 µM
[2] = target: Bromodomain adjacent to zinc finger domain protein 1A (Homo sapiens) (UniProt Q9NRL2); experiment: Selectivity interaction (Human bromodomain panel (DSF assay)) EUB0000233b BAZ1A
[3] = target: Sodium-dependent noradrenaline transporter (Homo sapiens, UniProt P23975); experiment: Selectivity interaction (Norepinephrine Transporter assay, human recombinant ) EUB0000877a SLC6A2
[4] = target: T1, Serine/threonine-protein kinase N1 (Homo sapiens, UniProt Q16512); details: at 10 µM
[5] = target: Ribosomal protein S6 kinase alpha-2 (Homo sapiens) (UniProt Q15349); experiment: Selectivity interaction (ActivX KiNativ screen (kinase selectivity in THP-1 cell lysates)) EUB0000639a RPS6KA2; format: subcellular; details: lysate, at 5 µM
[6] = target: Histone-lysine N-methyltransferase SETDB1 (Homo sapiens) (UniProt Q15047); experiment: Selectivity interaction (Methyltransferase screen (radiometric assays, panel of 8 PRMTs, 21 protein lysine methyltransferases, 3 DNA methyltransferases, and one RNA methyltransferase)) EUB0000271b SETDB1
[7] = target: Ribosomal protein S6 kinase alpha-6 (Homo sapiens, UniProt Q9UK32); experiment: Selectivity interaction (KinomeScan (DiscoverX)) EUB0000595a RPS6KA6; details: at 10 µM
[8] = target: Phosphatidylinositol 4-phosphate 5-kinase type-1 gamma (Homo sapiens) (UniProt O60331); experiment: Selectivity interaction (KinomeScan (DiscoverX)) EUB0000595a PIP5K1C; details: at 10 µM
[9] = target: T2, Mitogen-activated protein kinase kinase kinase 12 (Homo sapiens) (UniProt Q12852); experiment: Selectivity interaction (Ambit KINOMEscan and KiNATiv profiling in Jurkat cells) EUB0000090b MAP3K12; format: cell-based; details: at 1 µM
T2 sequence (whole entry): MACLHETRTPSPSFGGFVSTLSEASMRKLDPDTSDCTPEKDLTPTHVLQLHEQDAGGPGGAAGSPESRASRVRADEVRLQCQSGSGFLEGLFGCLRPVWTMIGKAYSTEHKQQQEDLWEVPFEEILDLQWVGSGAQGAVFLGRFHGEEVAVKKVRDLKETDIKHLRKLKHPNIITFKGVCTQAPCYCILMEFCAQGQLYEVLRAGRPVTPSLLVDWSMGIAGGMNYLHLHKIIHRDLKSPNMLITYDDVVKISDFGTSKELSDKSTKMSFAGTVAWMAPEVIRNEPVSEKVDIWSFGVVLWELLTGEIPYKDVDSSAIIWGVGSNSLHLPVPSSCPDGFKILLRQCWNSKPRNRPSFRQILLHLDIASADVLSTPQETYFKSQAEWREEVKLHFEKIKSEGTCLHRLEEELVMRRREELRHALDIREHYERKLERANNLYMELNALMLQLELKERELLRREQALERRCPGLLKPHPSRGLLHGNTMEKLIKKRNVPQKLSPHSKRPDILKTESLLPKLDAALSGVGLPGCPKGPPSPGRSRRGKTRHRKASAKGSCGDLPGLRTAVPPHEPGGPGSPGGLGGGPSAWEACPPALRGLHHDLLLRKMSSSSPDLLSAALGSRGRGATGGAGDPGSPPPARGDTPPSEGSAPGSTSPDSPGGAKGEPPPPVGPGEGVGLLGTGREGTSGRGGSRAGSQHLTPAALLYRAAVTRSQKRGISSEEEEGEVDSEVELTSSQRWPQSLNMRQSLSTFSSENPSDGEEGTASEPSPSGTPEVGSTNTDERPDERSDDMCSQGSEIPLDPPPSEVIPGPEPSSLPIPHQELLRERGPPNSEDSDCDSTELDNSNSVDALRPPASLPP

[10] = target: T1, Serine/threonine-protein kinase N1; experiment: Selectivity interaction (KinomeScan (DiscoverX)) EUB0001079a PKN1; details: at 1 µM
[11] = target: Microtubule-associated serine/threonine-protein kinase 3 (Homo sapiens) (UniProt O60307); experiment: Selectivity interaction (Kinase panel (KiNativ target engagement assay in Jurkat cells)) EUB0001635a MAST3; format: cell-based; details: Selectivity number of off-targets 0.0, Selectivity number of targets 233.0, Source Knowledge https://www.sciencedirect.com/science/article/pii/S2451945619300674?via%3Dihub, at 1 µM
[12] = target: Mitogen-activated protein kinase kinase kinase 20 (Homo sapiens) (UniProt Q9NYL2); experiment: Selectivity interaction (Kinase panel (KiNativ target engagement assay in Jurkat cells)) EUB0001635a MAP3K20; format: cell-based; details: Selectivity number of off-targets 0.0, Selectivity number of targets 233.0, Source Knowledge https://www.sciencedirect.com/science/article/pii/S2451945619300674?via%3Dihub, at 1 µM
[13] = target: T3, Interleukin-1 receptor-associated kinase 4 (Homo sapiens) (UniProt Q9NWZ3); experiment: Selectivity interaction (KinomeScan (DiscoverX)) EUB0000229b IRAK4; details: at 10 µM
T3 sequence (whole entry): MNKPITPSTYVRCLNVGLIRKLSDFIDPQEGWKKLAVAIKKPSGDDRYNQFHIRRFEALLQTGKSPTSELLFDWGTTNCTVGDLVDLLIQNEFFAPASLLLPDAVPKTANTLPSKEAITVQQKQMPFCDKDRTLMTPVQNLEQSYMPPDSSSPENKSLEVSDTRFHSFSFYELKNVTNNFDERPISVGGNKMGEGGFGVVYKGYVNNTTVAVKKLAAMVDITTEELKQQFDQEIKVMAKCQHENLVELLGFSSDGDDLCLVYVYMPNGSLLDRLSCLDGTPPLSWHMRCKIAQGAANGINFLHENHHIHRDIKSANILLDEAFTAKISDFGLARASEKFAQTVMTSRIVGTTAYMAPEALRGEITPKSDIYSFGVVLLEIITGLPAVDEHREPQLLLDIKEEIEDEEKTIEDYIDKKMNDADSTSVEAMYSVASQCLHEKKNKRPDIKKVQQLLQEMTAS

[14] = target: T4, Serine/threonine-protein kinase 17B (Homo sapiens) (UniProt O94768); experiment: Selectivity interaction (KinomeScan (DiscoverX)) EUB0000229b STK17B; details: at 10 µM
T4 sequence (whole entry): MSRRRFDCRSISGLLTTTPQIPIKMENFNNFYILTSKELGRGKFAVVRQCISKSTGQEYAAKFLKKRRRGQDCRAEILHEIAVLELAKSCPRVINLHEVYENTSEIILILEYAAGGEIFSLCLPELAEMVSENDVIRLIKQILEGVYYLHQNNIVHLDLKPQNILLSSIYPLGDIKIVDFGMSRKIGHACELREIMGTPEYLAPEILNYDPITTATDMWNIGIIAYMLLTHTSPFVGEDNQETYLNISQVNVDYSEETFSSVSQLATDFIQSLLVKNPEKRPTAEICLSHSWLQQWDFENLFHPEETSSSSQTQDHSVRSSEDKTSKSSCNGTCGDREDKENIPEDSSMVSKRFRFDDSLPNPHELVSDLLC

[15] = test system: Epidermal growth factor receptor (Homo sapiens), P00533 [UNDEFINED MUTATION]; details: at 10 µM
Sequence of Epidermal growth factor receptor (Homo sapiens), P00533 [UNDEFINED MUTATION] (P00533 whole entry, looked up, change not shown): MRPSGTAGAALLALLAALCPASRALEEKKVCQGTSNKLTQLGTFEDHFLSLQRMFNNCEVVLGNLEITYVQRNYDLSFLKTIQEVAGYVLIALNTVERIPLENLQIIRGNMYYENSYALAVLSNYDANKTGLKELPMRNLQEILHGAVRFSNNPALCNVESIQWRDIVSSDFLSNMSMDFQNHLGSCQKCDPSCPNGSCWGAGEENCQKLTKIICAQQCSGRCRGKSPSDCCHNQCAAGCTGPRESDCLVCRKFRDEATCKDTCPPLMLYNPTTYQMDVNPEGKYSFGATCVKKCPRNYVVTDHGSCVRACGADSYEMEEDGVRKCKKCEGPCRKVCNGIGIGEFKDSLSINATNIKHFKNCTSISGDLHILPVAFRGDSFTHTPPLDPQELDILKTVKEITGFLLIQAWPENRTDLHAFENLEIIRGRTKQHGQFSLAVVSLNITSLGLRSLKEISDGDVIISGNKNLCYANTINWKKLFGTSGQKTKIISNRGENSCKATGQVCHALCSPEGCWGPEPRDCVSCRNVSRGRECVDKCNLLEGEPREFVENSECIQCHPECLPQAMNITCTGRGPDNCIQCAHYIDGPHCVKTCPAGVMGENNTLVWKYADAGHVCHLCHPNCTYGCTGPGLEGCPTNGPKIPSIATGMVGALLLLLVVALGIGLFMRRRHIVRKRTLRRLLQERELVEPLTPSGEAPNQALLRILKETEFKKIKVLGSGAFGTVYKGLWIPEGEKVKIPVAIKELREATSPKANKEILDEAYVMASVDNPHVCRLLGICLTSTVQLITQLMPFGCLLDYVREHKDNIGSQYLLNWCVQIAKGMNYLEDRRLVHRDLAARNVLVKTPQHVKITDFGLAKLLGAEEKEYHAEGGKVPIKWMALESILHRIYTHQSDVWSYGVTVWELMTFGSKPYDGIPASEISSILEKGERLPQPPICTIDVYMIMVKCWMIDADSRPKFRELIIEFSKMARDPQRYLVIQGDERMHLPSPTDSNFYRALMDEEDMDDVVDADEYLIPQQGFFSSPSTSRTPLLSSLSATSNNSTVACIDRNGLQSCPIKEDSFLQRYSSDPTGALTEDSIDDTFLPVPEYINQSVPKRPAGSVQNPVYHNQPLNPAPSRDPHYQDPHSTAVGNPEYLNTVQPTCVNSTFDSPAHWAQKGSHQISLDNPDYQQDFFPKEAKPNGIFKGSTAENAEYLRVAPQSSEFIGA

T1 sequence (Q16512 2-942 limits assumed): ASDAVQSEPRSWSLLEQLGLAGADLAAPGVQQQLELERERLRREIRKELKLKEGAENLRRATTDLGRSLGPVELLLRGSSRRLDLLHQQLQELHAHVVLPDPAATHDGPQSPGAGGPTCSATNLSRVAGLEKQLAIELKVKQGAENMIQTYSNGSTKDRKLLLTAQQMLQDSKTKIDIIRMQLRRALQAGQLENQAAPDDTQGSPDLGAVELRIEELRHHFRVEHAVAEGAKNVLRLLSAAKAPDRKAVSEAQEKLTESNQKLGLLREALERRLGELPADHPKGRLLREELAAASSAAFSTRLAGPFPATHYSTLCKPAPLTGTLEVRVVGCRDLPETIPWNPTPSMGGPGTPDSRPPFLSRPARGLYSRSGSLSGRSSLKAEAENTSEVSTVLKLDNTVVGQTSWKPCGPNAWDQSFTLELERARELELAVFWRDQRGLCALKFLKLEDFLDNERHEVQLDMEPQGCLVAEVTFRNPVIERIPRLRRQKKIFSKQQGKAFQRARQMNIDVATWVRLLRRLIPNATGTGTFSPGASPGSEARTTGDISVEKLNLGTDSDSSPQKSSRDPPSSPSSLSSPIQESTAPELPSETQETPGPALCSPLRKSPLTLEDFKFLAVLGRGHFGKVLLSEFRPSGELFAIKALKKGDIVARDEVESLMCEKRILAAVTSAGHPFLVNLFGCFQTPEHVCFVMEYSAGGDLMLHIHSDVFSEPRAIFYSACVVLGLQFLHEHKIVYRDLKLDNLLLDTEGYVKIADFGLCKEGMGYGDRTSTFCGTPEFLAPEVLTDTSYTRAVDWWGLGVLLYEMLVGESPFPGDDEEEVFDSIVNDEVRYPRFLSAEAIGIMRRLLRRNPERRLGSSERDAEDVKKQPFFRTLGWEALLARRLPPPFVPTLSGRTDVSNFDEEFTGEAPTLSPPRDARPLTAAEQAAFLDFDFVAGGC
Sequence of Microtubule-associated serine/threonine-protein kinase 3 (Homo sapiens) (O60307 whole entry): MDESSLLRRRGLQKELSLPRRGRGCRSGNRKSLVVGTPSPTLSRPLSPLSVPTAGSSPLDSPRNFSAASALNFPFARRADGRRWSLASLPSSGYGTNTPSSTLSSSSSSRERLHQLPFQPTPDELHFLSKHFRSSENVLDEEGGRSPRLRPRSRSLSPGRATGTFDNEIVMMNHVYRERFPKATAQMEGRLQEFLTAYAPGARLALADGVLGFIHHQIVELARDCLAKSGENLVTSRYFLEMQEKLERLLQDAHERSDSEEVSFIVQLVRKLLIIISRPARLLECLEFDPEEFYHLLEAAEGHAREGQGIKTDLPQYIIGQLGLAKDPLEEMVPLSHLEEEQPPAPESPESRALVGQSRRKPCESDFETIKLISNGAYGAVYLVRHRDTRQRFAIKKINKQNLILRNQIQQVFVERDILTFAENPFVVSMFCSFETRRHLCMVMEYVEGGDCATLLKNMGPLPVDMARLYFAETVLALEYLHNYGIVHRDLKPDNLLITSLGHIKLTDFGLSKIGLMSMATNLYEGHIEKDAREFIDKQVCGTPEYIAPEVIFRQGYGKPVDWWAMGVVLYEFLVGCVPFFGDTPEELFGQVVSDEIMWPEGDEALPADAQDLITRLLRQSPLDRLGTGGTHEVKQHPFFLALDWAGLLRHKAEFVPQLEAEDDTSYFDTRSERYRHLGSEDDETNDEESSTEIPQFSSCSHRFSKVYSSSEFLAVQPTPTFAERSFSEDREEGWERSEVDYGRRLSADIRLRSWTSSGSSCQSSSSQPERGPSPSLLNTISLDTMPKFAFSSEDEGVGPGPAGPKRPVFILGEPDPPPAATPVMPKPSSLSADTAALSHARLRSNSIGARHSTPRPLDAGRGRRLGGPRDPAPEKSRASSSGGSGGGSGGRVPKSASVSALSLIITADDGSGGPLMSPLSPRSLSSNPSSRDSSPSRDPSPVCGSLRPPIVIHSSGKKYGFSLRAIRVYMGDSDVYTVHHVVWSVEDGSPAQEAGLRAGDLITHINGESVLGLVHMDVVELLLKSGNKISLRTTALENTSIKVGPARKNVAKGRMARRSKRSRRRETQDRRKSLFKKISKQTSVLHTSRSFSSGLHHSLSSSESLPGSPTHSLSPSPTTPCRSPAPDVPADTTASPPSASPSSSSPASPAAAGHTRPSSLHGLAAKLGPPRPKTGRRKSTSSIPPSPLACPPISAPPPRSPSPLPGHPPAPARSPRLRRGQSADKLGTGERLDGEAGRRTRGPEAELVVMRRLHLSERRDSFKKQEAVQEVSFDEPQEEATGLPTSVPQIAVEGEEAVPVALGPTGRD
Sequence of Ribosomal protein S6 kinase alpha-2 (Homo sapiens) (Q15349 whole entry): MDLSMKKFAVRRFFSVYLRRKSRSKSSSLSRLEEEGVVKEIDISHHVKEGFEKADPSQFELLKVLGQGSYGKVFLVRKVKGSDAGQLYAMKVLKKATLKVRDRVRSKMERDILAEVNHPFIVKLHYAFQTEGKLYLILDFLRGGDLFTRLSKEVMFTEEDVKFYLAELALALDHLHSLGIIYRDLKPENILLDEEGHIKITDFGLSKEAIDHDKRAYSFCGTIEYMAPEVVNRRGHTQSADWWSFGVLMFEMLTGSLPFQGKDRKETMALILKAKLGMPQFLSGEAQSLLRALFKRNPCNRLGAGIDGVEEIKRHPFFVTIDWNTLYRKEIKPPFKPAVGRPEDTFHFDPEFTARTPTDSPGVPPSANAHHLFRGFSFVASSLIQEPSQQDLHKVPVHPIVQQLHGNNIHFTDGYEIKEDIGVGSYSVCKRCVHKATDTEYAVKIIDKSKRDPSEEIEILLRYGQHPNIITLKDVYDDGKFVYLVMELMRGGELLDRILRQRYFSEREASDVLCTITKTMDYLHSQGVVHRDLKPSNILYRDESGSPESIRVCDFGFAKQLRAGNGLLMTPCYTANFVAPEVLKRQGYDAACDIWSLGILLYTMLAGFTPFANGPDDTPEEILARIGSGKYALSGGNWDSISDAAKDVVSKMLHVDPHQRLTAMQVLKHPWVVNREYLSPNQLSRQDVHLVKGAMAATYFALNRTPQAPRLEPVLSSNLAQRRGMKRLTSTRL
Sequence of Mitogen-activated protein kinase kinase kinase 20 (Homo sapiens) (Q9NYL2 2-800 limits assumed): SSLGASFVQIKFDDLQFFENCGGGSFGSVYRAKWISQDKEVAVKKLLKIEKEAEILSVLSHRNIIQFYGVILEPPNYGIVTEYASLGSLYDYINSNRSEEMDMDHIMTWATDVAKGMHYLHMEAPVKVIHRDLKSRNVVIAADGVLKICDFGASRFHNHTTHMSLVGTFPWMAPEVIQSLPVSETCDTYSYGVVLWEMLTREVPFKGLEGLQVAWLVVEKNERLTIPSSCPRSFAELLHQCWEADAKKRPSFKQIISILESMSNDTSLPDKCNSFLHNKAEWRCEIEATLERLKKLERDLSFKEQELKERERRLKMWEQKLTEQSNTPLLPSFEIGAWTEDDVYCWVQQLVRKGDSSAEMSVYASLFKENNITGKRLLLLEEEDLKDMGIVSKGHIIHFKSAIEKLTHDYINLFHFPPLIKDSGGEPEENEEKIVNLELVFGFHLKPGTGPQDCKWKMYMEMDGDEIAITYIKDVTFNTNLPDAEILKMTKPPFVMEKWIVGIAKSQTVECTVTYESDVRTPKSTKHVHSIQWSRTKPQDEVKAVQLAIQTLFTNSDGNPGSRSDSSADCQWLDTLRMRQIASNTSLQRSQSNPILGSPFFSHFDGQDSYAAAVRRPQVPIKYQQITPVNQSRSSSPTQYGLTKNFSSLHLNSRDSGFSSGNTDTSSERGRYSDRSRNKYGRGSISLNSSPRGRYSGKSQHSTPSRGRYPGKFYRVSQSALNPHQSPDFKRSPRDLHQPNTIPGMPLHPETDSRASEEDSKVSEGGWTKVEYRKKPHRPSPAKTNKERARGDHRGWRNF

Structure (SMILES): Cn1cc(-n2cnc3c(NCc4nc5cc(Cl)c(Cl)cc5[nH]4)nc(N4CCOCC4)nc32)cn1
- % of inhibition [1]: -15.4%

Structure (SMILES): CN(C)CCCOc1ccc(-c2cc(NCCCn3cccn3)nc(S(C)(=O)=O)n2)cc1
- dTM [2]: < 2 K

Structure (SMILES): CCC(=O)N1CC[C@H](Nc2ncnc3c2CN(c2cnc(OC)c(C(F)(F)F)c2)CC3)C1 [LENIOLISIB]
- IC50 [3]: > 30 µM

Structure (SMILES): CCN(CC)CCCCNc1ncc2cc(-c3cc(OC)cc(OC)c3)c(NC(=O)NC(C)(C)C)nc2n1
- % of control [4]: 100%

Structure (SMILES): CC[C@@H]1[C@H](F)C(=O)N[C@@H]1COc1nccc2cc(C(N)=O)c(OC)cc12 [ZIMLOVISERTIB]
- % of inhibition [5]: 6.4%

Structure (SMILES): Cc1cc(C)cc([C@@H]2c3cc(C)ccc3NC(=O)CN2C(=O)c2ccc(Br)s2)c1
- % of activity ([6]; at 1 µM): 102%
- % of activity ([6]; at 10 µM): 104%

Structure (SMILES): COCC(=O)NC/C=C/c1ccc2ncnc(Nc3ccc(Oc4ccc(C)nc4)c(C)c3)c2c1 [CP-724714]
- % of control [7]: 96%
- % of control [8]: 93%

Structure (SMILES): CN(C)C/C=C/C(=O)Nc1ccc(C(=O)N2CCCC(Nc3ncc(Cl)c(-c4c[nH]c5ccccc45)n3)C2)cc1 (stereo unspecified)
- % of control [9]: 89%

Structure (SMILES): Nc1cnc(N2CCc3cc(S(=O)(=O)Nc4c(F)cc(Cl)cc4F)cc(N4CCCC4=O)c32)nc1 [TP-020n]
- % of control [10]: 95%

Structure (SMILES): C=CC(=O)Nc1ccc(C(=O)Nc2[nH]nc3c2CN(C(=O)N[C@H](CN(C)C)c2ccccc2)C3(C)C)cc1
- % of engagement [11]: -0.8%
- % of engagement [12]: -9.7%

Structure (SMILES): COc1cc(N(C)c2ccnc3ccc(C(F)(F)F)cc23)cc(OC)c1OC
- % binding [13]: 85%
- % binding [14]: 100%

Structure (SMILES): Cc1cc([C@@H](C)Nc2ccccc2C(=O)O)c2nc(N3CCOCC3)cc(=O)n2c1 [AZD-6482]
- % of control [15]: 100%

— ChEMBL document CHEMBL5465560, “Selectivity Literature for EUbOPEN Chemogenomic Library” (2024)
